Experimental findings from PMC2939961 (Journal of neurochemistry, 2010) are described below.

Structures are written as SMILES. Where a name gives a salt, the structure may show the parent alone.

The target of test [1] is T1, Ostα-Ostβ (organic solute transporter, Ostα subunit) (Mus musculus, UniProt Q80WK2+Q8R000).
T1 sequence (Q8R000 1-340): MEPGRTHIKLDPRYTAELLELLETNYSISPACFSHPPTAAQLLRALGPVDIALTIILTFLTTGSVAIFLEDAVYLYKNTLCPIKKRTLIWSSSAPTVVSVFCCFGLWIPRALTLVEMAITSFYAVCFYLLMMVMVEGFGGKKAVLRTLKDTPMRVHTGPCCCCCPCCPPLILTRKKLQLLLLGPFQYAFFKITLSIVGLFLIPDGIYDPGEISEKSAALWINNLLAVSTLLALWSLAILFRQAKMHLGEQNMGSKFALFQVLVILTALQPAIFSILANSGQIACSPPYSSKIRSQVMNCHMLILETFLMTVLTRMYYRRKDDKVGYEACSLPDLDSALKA
T1 sequence (Q80WK2 1-128): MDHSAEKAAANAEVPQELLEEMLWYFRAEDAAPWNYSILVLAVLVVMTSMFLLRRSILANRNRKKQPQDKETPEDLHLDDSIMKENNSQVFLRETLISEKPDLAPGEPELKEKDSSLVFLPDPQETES
To be noted: read-out: % inhibition at 500 μM.

Test [2] addresses T2, OSTα-OSTβ (organic solute transporter, OSTα subunit) (Homo sapiens, UniProt Q86UW1+Q86UW2).
T2 sequence (Q86UW1 1-340): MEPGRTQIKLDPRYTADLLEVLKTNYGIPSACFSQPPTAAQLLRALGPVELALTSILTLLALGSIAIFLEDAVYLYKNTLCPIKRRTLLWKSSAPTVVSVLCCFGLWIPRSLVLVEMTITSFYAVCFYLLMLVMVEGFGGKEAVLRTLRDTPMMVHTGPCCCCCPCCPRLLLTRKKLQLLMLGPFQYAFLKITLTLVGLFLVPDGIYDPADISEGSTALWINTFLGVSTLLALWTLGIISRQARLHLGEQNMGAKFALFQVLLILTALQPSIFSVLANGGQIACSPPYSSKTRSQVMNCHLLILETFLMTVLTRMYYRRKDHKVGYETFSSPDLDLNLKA
T2 sequence (Q86UW2 1-128): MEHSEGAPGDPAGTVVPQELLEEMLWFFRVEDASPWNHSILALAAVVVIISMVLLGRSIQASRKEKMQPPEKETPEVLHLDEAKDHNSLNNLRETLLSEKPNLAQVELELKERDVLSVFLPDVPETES
The note with it: read-out: % inhibition at 500 μM.

Consider `CC(=O)[C@H]1CC[C@H]2[C@@H]3CC=C4C[C@@H](OS(=O)(=O)O)CC[C@]4(C)[C@H]3CC[C@]12C` [PREGS, pregnenolone sulfate], for which, in test [1], the inhibition at 500 µM is roughly 65%. Take `C[C@]12CC[C@@H](OS(=O)(=O)O)C[C@@H]1CC[C@@H]1[C@@H]2CC[C@]2(C)C(=O)CC[C@@H]12` [Androsterone sulfate]: the inhibition at 500 µM in test [1] and in test [2] was roughly 65% in each case.
